For one data set, the target named is T1, HSV-1 protease (Human herpesvirus 1, UniProt P10210).
T1 construct: 6xHis (N); made in house; host or cells: baculovirus expression system
Nature of the data set: Enzymatic assay for HSV-1 protease (assembly) inhibitor, fluorescence polarization. The format is biochemical. The following applies: read-out: HSV-1 Enzyme inhibition IC50. The method in brief:
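Fluorescence polarization read-out: after avidin stop, cleavage of a biotinylated DTAF-labelled release-site peptide by recombinant N-His6 HSV-1 protease was compared with no-inhibitor wells. Enzyme and compound were preincubated 30 min, then substrate reacted 60 min, all at room temperature, pH 7.4 citrate buffer with TCEP.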

For a further data set, the system named is Vero cells. Nature of the data set: Cytotoxicity, Vero cells, Alamar Blue. The note with it: 25 μM, 20 hours. The data set is classed as cell-based. How it is done: An Assay Method for Cytotoxicity
The Vero cells were sown on a 96-well plate and then cultured overnight. The culture supernatant was removed, and 200 μl of 2% FBS-DMEM comprising 25 μM of the test compound was added. In this case, a substance to which 2% FBS-DMEM not comprising any test compound had been added was determined as a control. These cells were incubated in the presence of 5% CO2 at 37° C. for 20 hours. Alamar Blue (20 μl) was added to the cells, and cells were incubated for about 6 hours until the color of the control changed. The ratio of the absorbance was assayed using a microplate reader for absorption, and the value relative to the control was determined to be the ratio of living cells.

The test system of a further data set is HSV-1. Nature of the data set: Antiviral activity, HSV-1 in Vero cells, plaque method. The format is cell-based. The note with it: Human alphaherpesvirus 1, 20 hours, 90% inhibition of plaque formation. The method in brief: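 This is a virus-yield read-out. The culture medium was frozen at −80° C and thawed, and the plaques it formed were counted. It came from Vero monolayers infected with 50,000 pfu HSV-1 and then exposed to the compound for 20 h at 37° C. EC90 is the concentration inhibiting 90% of plaque formation relative to the untreated infected control.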

T1 sequence (P10210 1-247): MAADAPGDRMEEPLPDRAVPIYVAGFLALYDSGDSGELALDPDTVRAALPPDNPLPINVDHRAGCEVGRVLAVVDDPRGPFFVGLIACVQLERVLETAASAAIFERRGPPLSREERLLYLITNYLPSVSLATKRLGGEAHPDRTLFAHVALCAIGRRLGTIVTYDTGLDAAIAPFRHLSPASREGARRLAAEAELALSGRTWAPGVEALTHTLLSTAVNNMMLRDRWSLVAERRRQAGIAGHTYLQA

Regarding `COc1ccccc1C(=O)Nc1ccc2nc(NC(C)(C)C(=O)N(C)CCc3ccccn3)oc(=O)c2c1C` [Compound No.161, 2-Methoxy-N-(5-methyl-2-{1-methyl-1-[methyl-(2-pyridin-2-yl-ethyl)-carbamoyl]-ethylamino}-4-oxo-4H-benzo[d][1,3]oxazin-6-yl)-benzamide], the IC50 at HSV-1 protease came out at 2800 nM. The “Cell viability (% of control)” value with Vero cells came to 44.1%. The compound also gave an EC90 in the data set with HSV-1 of 11.4 µM.
For `Cc1c(NC(=O)OC(C)(C)C)ccc2nc(N[C@@H](Cc3ccccc3)C(=O)NCc3cccnc3)oc(=O)c12` [Compound No.30, (5-Methyl-4-oxo-2-{2-phenyl-1S-[(pyridin-3-ylmethyl)-carbamoyl]-ethylamino}-4H-benzo[d][1,3]oxazin-6-yl)-carbamic acid tert-butyl ester], in that order: 700 nM, 98.6% and 23.8 µM.
Regarding `Cc1cc(C(=O)Nc2ccc3nc(NC(C)(C)C(=O)N(C)CCc4ccccn4)oc(=O)c3c2C)c(C)o1` [Compound No.176, 2,5-Dimethyl-furan-3-carboxylic acid (5-methyl-2-{1-methyl-1-[methyl-(2-pyridin-2-yl-ethyl)-carbamoyl]-ethylamino}-4-oxo-4H-benzo[d][1,3]oxazin-6-yl)-amide], the IC50 on HSV-1 protease amounted to 1900 nM. In the data set with Vero cells, the “Cell viability (% of control)” value came out at 93.3%. Moreover, in the data set on HSV-1, the EC90 was over 12.5 µM.
For `Cc1c(NC(=O)OC(C)(C)C)ccc2nc(N3CCCC[C@H]3C(=O)NCc3ccncc3)oc(=O)c12` [Compound No.104, (5-Methyl-4-oxo-2-{2S-[(pyridin-4-ylmethyl)-carbamoyl]-piperidin-1-yl}-4H-benzo[d][1,3]oxazin-6-yl)-carbamic acid tert-butyl ester], in that order: 4300 nM, 63.0% and over 12.5 µM.
On the same counts, the results for `Cc1c(NC(=O)c2ccccc2I)ccc2nc(NC(C)(C)C(=O)N(C)CCc3ccccn3)oc(=O)c12` [Compound No.155, 2-Iodo-N-(5-methyl-2-{1-methyl-1-[methyl-(2-pyridin-2-yl-ethyl)-carbamoyl]-ethylamino}-4-oxo-4H-benzo[d][1,3]oxazin-6-yl)-benzamide] are 1500 nM, 69.1% and over 12.5 µM.
For `Cc1c(NC(=O)c2ccc(C(C)(C)C)cc2)ccc2nc(NC(C)(C)C(=O)N(C)CCc3ccccn3)oc(=O)c12` [Compound No.168, 4-tert-Butyl-N-(5-methyl-2-{1-methyl-1-[methyl-(2-pyridin-2-yl-ethyl)-carbamoyl]-ethylamino}-4-oxo-4H-benzo[d][1,3]oxazin-6-yl)-benzamide], in that order: 1300 nM, 16.8% and 3.6 µM.
With `Cc1c(NC(=O)OC(C)(C)C)ccc2nc(N[C@@H](CC(C)C)C(=O)N(C)CCc3ccncc3)oc(=O)c12` [Compound No.54, (5-Methyl-2-{3-methyl-1S-[methyl-(2-pyridin-4-yl-ethyl)-carbamoyl]-butylamino}-4-oxo-4H-benzo[d][1,3]oxazin-6-yl)-carbamic acid tert-butyl ester], the IC50 on HSV-1 protease is 1800 nM. Besides, the “Cell viability (% of control)” value with Vero cells was 62.8%. Further, in the data set on HSV-1, it took 6.2 µM to reach the 90% level (EC90).
On the same counts, the results for `Cc1c(NC(=O)OC(C)(C)C)ccc2nc(N(C)[C@@H](Cc3ccccc3)C(=O)N(C)CCc3ccncc3)oc(=O)c12` [Compound No.85, [5-Methyl-2-(methyl-{1S-[methyl-(2-pyridin-4-yl-ethyl)-carbamoyl]-2-phenyl-ethyl}-amino)-4-oxo-4H-benzo[d][1,3]oxazin-6-yl]-carbamic acid tert-butyl ester] are 2300 nM, 60.7% and 11.7 µM.
For `Cc1c(NC(=O)OC(C)(C)C)ccc2nc(N(C)[C@@H](C)C(=O)NCc3ccccn3)oc(=O)c12` [Compound No.71, [5-Methyl-2-(methyl-{1S-[(pyridin-2-ylmethyl)-carbamoyl]-ethyl}-amino)-4-oxo-4H-benzo[d][1,3]oxazin-6-yl]-carbamic acid tert-butyl ester], in that order: 800 nM, 107.0% and over 12.5 µM.
`Cc1c(NC(=O)OC(C)(C)C)ccc2nc(N[C@H](C(=O)NCc3ccncc3)C(C)C)oc(=O)c12` [Compound No.25, (5-Methyl-2-{2-methyl-1S-[(pyridin-4-ylmethyl)-carbamoyl]-propylamino}-4-oxo-4H-benzo[d][1,3]oxazin-6-yl)-carbamic acid tert-butyl ester]: the IC50 on HSV-1 protease is over 20000 nM. Moreover, the “Cell viability (% of control)” value with Vero cells amounted to 100.0%. In the data set with HSV-1, this compound displayed an EC90 of over 25 µM.
For `Cc1c(NC(=O)c2cccc(CCl)c2)ccc2nc(NC(C)(C)C(=O)N(C)CCc3ccccn3)oc(=O)c12` [Compound No.170, 3-Chloromethyl-N-(5-methyl-2-{1-methyl-1-[methyl-(2-pyridin-2-yl-ethyl)-carbamoyl]-ethylamino}-4-oxo-4H-benzo [d][1,3]oxazin-6-yl)-benzamide], in that order: 1500 nM, 13.6% and 7.8 µM.
As for `Cc1oc(C(C)(C)C)cc1C(=O)Nc1ccc2nc(NC(C)(C)C(=O)N(C)CCc3ccccn3)oc(=O)c2c1C` [Compound No.174, 5-tert-Butyl-2-methyl-furan-3-carboxylic acid (5-methyl-2-{1-methyl-1-[methyl-(2-pyridin-2-yl-ethyl)-carbamoyl]-ethylamino}-4-oxo-4H-benzo[d][1,3]oxazin-6-yl)-amide], on HSV-1 protease, the IC50 is 9300 nM. The “Cell viability (% of control)” value in the data set on Vero cells was found to be 30.1%. The compound further showed an EC90 in the data set with HSV-1 of over 12.5 µM.
For `Cc1cccc(C(=O)Nc2ccc3nc(NC(C)(C)C(=O)N(C)CCc4ccccn4)oc(=O)c3c2C)c1` [compound 157, 3-Methyl-N-(5-methyl-2-{1-methyl-1-[methyl-(2-pyridin-2-yl-ethyl)-carbamoyl]-ethylamino}-4-oxo-4H-benzo[d][1,3]oxazin-6-yl)-benzamide], in that order: 3300 nM, 70.5% and 6.2 µM.
For `Cc1c(NC(=O)OC(C)(C)C)ccc2nc(N3CCCC[C@H]3C(=O)N(C)CCc3ccncc3)oc(=O)c12` [Compound No.108, (5-Methyl-2-{2S-[methyl-(2-pyridin-4-yl-ethyl)-carbamoyl]-piperidin-1-yl}-4-oxo-4H-benzo[d][1,3]oxazin-6-yl)-carbamic acid tert-butyl ester], in that order: 4400 nM, 97.9% and over 12.5 µM.
On to `Cc1c(NC(=O)CCCNC(=O)c2cccs2)ccc2nc(N[C@@H](C)C(=O)N(C)CCc3ccccn3)oc(=O)c12` [Compound No.218, Thiophene-2-carboxylic acid [3-(5-methyl-2-{1S-[methyl-(2-pyridin-2-yl-ethyl)-carbamoyl]-ethylamino}-4-oxo-4H-benzo[d][1,3]oxazin-6-ylcarbamoyl)-propyl]-amide], for which the IC50 at HSV-1 protease was found to be 400 nM. For the same compound, the EC90 with HSV-1 is over 12.5 µM.

(Values after patent US20040116420A1 (priority 2001, published 2004).)
